# Assay results reported in US6291657A (priority 1993, dated 2001).
# What was measured:
# [1] = system: oligosaccharide biosynthesis in BW5147 cells; assay: Glycopeptide analysis by Con A-SEPHAROSE chromatography, BW5147 cells; format: cell-based, murine
# WEHI-3B cell lysosomes = assay: Transmission electron microscopy of lysosomes of CBE treated WEHI-3B cells; format: cell-based, murine; conditions: transmission electron microscopy (FIG. 6)
# [2] = system: glycolipid and phospholipid species in HL-60 cells; assay: 2D-TLC analysis of total HL-60 lipids labelled with [14C]-palmitic acid; format: cell-based, human; conditions: 2D-TLC (FIG. 2)
# Experimental: 2D-TLC separation was made of total HL-60 lipids labelled with [^14 C]-palmitic acid. Cells were treated with either 0.5 mM NB-DNJ or NB-DGJ or untreated (UT). Lipids were assigned as follows (untreated cells, lefthand panel, FIG. 2A): 1, gangliosides; 2, lysophospatidylcholine; 3, ceramide phosphorylcholine; 4, ceramide phosphorylethanolamine; 5, phospatidylcholine; 6, phosphatidylinositol; 7, phosphatidylethanolamine; 8, phosphatidylglycerol; 9, diglycosylceramide; 10, monoglycosylceramide; 11, cholesterol/fatty acids/neutral lipids; N and N* are unknowns; and 0 is the sample origin. Following NB-DNJ and NB-DGJ treatment (middle and righthand panels, FIGS. 2B and 2C, respectively) species 1 (gangliosides);9 (diglycosylceramide); 10 (monoglycosylceramide) and N* (unknown) were absent. The radiolabelled lipids were visualized by autoradiography.
# HL-60 cells were cultured by conventional procedure as previously described by Platt et al., Eur. J. Biochem. 208, 187-193 (1992). HL-60 cells at 5×10^4 cells/ml were cultured in the presence or absence of imino sugars for 24 hr. For labelling, the two dimensional thin layer chromatography (2D-TLC) conventional method of Butters and Hughes was followed [In Vitro 17, 831-838 (1981)]. Briefly, [^14 C]-palmitic acid (56.8 mCi/mmol, ICN/Flow) was added as a sonicated preparation in foetal calf serum (FCS, Techgen, London, U.K., 0.5 μCi/ml) and the cells cultured for a further 3 days maintaining the imino sugars in the medium. The cells were harvested, washed three times with phosphate buffered saline (PBS), extracted in 1 ml chloroform:methanol (2:1 v/v) and separated by 1 dimensional TLC, loading equal counts (1D-TLC, chloroform:methanol:water (65:25:4)). For two dimensional separations the one dimensional separation was performed as described above, the plate dried overnight under vacuum and separated in the second dimension using a solvent of tetrahydrofuran: dimethoxymethane:methanol:water (10:6:4:1). Plates were air dried and exposed to Hyperfilm-MP high performance autoradiography film (Amersham).
# HL-60 cells = assay: Cytotoxicity in the dose range tested; format: cell-based, human
# [3] = system: cholera toxin binding sites on H9 cells; format: cell-based, human
# [4] = molecular target: UDP-glucose:N-acylsphingosine glucosyltransferase; assay: Inhibition of UDP-glucose:N-acylsphingosine glucosyltransferase; format: biochemical, rat brain, mouse macrophage (WEHI-3B); conditions: rat brain or mouse macrophage homogenates; read-out: IC50
# [5] = system: oligosaccharide biosynthesis in HL-60 cells; assay: Glycopeptide analysis by Con A-SEPHAROSE chromatography, HL-60 cells; format: cell-based, human
# α-glucosidase I and II = assay: Inhibition of purified processing α-glucosidase I and II; format: biochemical; conditions: for inhibition of processing α-glucosidases I and II / N-linked oligosaccharide processing: in words
# Experimental: Porcine liver α-glucosidase I and rat liver α-glucosidase II were purified to homogeneity and assayed by conventional procedure using a [^14 C]-glucose labelled Glc3 Man9 GlcNAc2 substrate as previously described by Karlsson et al., J. Biol. Chem. 268, 570-576 (1993).
# Enzymes were assayed according to procedure described hereinbefore using
# The data from FIG. 8 were […]
# [6] = system: N-linked oligosaccharide processing of gp120 in CHO cells (α-glucosidases I and II); assay: Endo H sensitivity of gp120 expressed in CHO cells (N-linked oligosaccharide processing); format: cell-based, Chinese hamster
# Experimental: The arrows indicate the molecular weight of the untreated gp120 (120 kDa) and post endo H digestion (60 kDa). An additional band of low molecular weight (approximately 60 kDa) was present in some lanes and is a non-specific protein precipitated by the solid phase matrix.
# The culture of CHO cells expressing soluble recombinant gp120 (from Dr. P. Stevens, MRC AIDS Directed Programme Reagent Project) and the radiolabelling of these cells was carried out by conventional procedure as described by Karlsson et al., J. Biol. Chem. 268, 570-576 (1993). Briefly, CHO cells were harvested mechanically, washed three times with phosphate buffered saline, 0.1M pH 7.2 (PBS) and resuspended in methionine- and cysteine-free RPMI-1640 medium (ICN-Flow Laboratories, High Wycombe, Bucks, U.K.) supplemented with 1% dialysed FCS. Cells (10^7 /ml) were preincubated in the presence or absence of NB-DNJ or NB-DGJ for 1 hr prior to the addition of 100 μCi/ml Tran^35 S-label (ICN-Flow) for 4 hr. The supernatants were collected and concentrated tenfold using a 30 kDa cut-off membrane (Amicon, Danvers, Mass., U.S.A.).
# Immunoprecipitations were performed by conventional procedure as described by Karlsson supra. Supernatants were incubated with the mAb ABT 1001 monoclonal antibody (American Biotechnologies Inc., Cambridge, Mass., U.S.A.) at 0.5 μg/100 μl of supernatant for 30 min. at room temperature followed by sheep anti-mouse IgG1-coated magnetic beads (Dynal Ltd., Wirral, Merseyside, U.K., 1.2×10^7 beads per sample) for 1 hr. at 4° C. The beads were washed three times with 2% TRITON® X-100 in PBS and three times with PBS. Gp120 was eluted in […] reducing SDS-PAGE sample buffer with heating (95° C., 5 min.). Each sample was divided into two equal aliquots and 25 μl of dH2 O added to give a final volume of 50 μl. To one half of each sample 2 μl of endoglycosidase H (endo H, 1 unit/ml, Boehringer Mannheim Ltd., Lewes, Sussex, U.K.) was added and the other half left untreated. […]
structure (smiles),measurement,setting,value
"CCCCN1C[C@H](O)[C@@H](O)[C@@H](O)[C@H]1CO [NB-DGJ, N-butyl deoxygalactonojirimycin]",Total 3H-mannose recovered,[1],706873 cpm
same,Bi-antennary,[1]; percentage of radiolabelled glycopeptides eluted with 10 mM methylglucoside,7.2%
same,Oligo-mannose & hybrid,[1]; percentage of radiolabelled glycopeptides eluted with 500 mM methylmannoside,52.4%
same,Tetra- & Tri-antennary,[1]; percentage of radiolabelled glycopeptides non-bound,40.4%
same,glycolipid accumulation in lysosomes,WEHI-3B cell lysosomes,prevented the glycolipid accumulation
same,"gangliosides, unknown lipid (N*), mono and dihexaside species following treatment","[2]; HL-60, 0.5 mM",absent
same,depletion of glycolipid species,"[2]; HL-60, 500 μM",total depletion of glycolipid species
same,cytotoxicity,HL-60 cells,non-cytotoxic
same,cholera toxin binding,[3],reduction of the binding of cholera toxin
same,reduction in cholera toxin binding,"[3]; h9 cells, 4320 min",approximately 70%
same,IC50,[4],60.9 µM
same,Total 3H-mannose recovered,[5]; HL-60,844322 cpm
same,Bi-antennary,"[5]; HL-60, percentage of radiolabelled glycopeptides eluted with 10 mM methylglucoside",17.7%
same,Oligo-mannose & hybrid,"[5]; HL-60, percentage of radiolabelled glycopeptides eluted with 500 mM methylmannoside",54.2%
same,Tetra- & Tri-antennary,"[5]; HL-60, percentage of radiolabelled glycopeptides non-bound",28.1%
same,glycopeptide profile by Con A-SEPHAROSE chromatography,[5]; HL-60 and BW5147,unchanged glycopeptide profile
same,inhibition of processing α-glucosidases I and II / N-linked oligosaccharide processing,α-glucosidase I and II,does not inhibit N-linked oligosaccharide processing
same,inhibition of processing α-glucosidases I and II / N-linked oligosaccharide processing,α-glucosidase I and II; listed as N-butyl DGJ,does not inhibit
same,IC50,α-glucosidase I and II; mixture of purified α-glucosidases I and II,2.13 mM
same,inhibition of α-glucosidases I and II suggested by gp120 endo H sensitivity,[6]; 0.5 mM and 5 mM,not acting as an inhibitor of α-glucosidases I and II
same,endo H sensitivity of gp120 N-linked glycans,[6]; 0.5 mM or 5 mM (FIG. 7),partially sensitive to endo H and was indistinguishable from the untreated gp120 molecules
